Measurements taken from PubChem BioAssay AID1259408 (Genetic Toxicology Data Bank (GENE-TOX), 2018).
Activity calls are given as the source filed them. The rule behind the calls is not given here.

Tested on: GENE-TOX genotoxicity assays, various organisms and cells
Assay: GENE-TOX mutagenicity studies
Details: for call: Assay Type: In vivo carcinogenicity studies
[1] = Species/Cell Type: Drosophila melanogaster, Assay Type: Sex-linked recessive lethal gene mutation, Assay Code: SRLT, Evaluation Type: Evaluation A (Pre-1980)
[2] = Species/Cell Type: Nonhuman, Assay Type: Sister-chromatid exchange (SCE) in vitro, Assay Code: SC2+D, Dose Response: With dose response, Evaluation Type: Evaluation B (Post-1980)
[3] = Species/Cell Type: Drosophila melanogaster, Assay Type: Sex-linked recessive lethal gene mutation, Assay Code: SRL+, Evaluation Type: Evaluation A (Pre-1980)
[4] = Species/Cell Type: Escherichia coli polA (W3119 vs P3478), Assay Type: Rec-assay, DNA effects (bacterial DNA repair), Assay Code: RE1+, Evaluation Type: Evaluation A (Pre-1980)
[5] = Species/Cell Type: Human lymphocytes, Assay Type: Sister-chromatid exchange (SCE) in vitro, Assay Code: SCL+D, Dose Response: With dose response, Evaluation Type: Evaluation B (Post-1980)
[6] = Species/Cell Type: Human, Assay Type: Sister-chromatid exchange (SCE) in vitro, Assay Code: SC1+D, Dose Response: With dose response, Evaluation Type: Evaluation B (Post-1980)
[7] = Species/Cell Type: Nonhuman, Assay Code: CCG+, Evaluation Type: Evaluation A (Pre-1980)
[8] = Species/Cell Type: Saccharomyces cerevisiae, Assay Type: Mitotic recombination or gene conversion, Assay Code: YEC+, Evaluation Type: Evaluation A (Pre-1980)
[9] = Species/Cell Type: Saccharomyces cerevisiae, Assay Type: Reverse gene mutation, Assay Code: YER+, Evaluation Type: Evaluation A (Pre-1980)
[10] = Species/Cell Type: Mouse, Sex: Male, Assay Type: Sperm morphology, Assay Code: SPI-, Evaluation Type: Evaluation A (Pre-1980)
[11] = Species/Cell Type: Saccharomyces cerevisiae, Assay Type: Mitotic recombination or gene conversion, Assay Code: YEH-, Evaluation Type: Evaluation A (Pre-1980)
[12] = Species/Cell Type: Nonhuman, Assay Type: Sister-chromatid exchange (SCE) in vitro, Assay Code: SC2T, Evaluation Type: Evaluation B (Post-1980)
[13] = Species/Cell Type: Escherichia coli polA (W3119 vs P3478), Assay Type: Rec-assay, DNA effects (bacterial DNA repair), Assay Code: RE1T, Evaluation Type: Evaluation A (Pre-1980)
[14] = Species/Cell Type: Chinese hamster lung (V79) cells, Assay Type: Forward gene mutation at the HPRT or ouabain locus, Assay Code: V79+, Evaluation Type: Evaluation A (Pre-1980)

Structure (SMILES): CC[C@@]1(O)C[C@H](O[C@H]2C[C@H](N(C)C)[C@H](O[C@H]3C[C@H](O)[C@H](O[C@H]4CCC(=O)[C@H](C)O4)[C@H](C)O3)[C@H](C)O2)c2c(cc3c(c2O)C(=O)c2c(O)cccc2C3=O)[C@H]1C(=O)OC
- mutagenic call (Species/Cell Type: Salmonella typhimurium (one or more of the five standard strains: TA98, TA100, TA1535, TA1537, and TA1538), Assay Type: Histidine reverse gene mutation, Ames assay, Assay Code: SALT, Evaluation Type: Evaluation A (Pre-1980)): no conclusion

Structure (SMILES): ClC(Cl)(Cl)C1CO1 (stereo unspecified)
- mutagenic call [1]: no conclusion
- mutagenic call (Species/Cell Type: Human lymphocytes, Assay Type: Sister-chromatid exchange (SCE) in vitro, Assay Code: SCL+, Evaluation Type: Evaluation B (Post-1980)): active; positive
- mutagenic call (Species/Cell Type: Human, Assay Type: Sister-chromatid exchange (SCE) in vitro, Assay Code: SC1+, Evaluation Type: Evaluation B (Post-1980)): active; positive
- mutagenic call (Species/Cell Type: Saccharomyces cerevisiae, Assay Type: Mitotic recombination or gene conversion, Assay Code: YEH+/-*, Activation: With metabolic activation, Evaluation Type: Evaluation A (Pre-1980)): inactive; positive without activation, negative with activation

Structure (SMILES): CCC(=O)ONC(=O)c1ccc2ccccc2c1
- mutagenic call [2]: active; positive

Structure (SMILES): CC1=CC(=C(c2ccc(N)cc2)c2ccc(N)cc2)C=CC1=N
- mutagenic call (Species/Cell Type: Bacillus subtilis (H17 vs M45), Assay Type: Rec-assay, spot test, DNA effects (bacterial DNA repair), Assay Code: REWT, Evaluation Type: Evaluation A (Pre-1980)): no conclusion

Structure (SMILES): C=O
- mutagenic call (Species/Cell Type: Chinese hamster ovary (CHO) cells, Assay Type: Forward gene mutation at the HPRT locus, Assay Code: CHOT, Evaluation Type: Evaluation B (Post-1980)): no conclusion
- mutagenic call [3]: active; positive
- mutagenic call (Species/Cell Type: Drosophila melanogaster, Sex: Male, Assay Type: Heritable translocation test, chromosome aberrations, Assay Code: DHT+, Evaluation Type: Evaluation A (Pre-1980)): active; positive
- mutagenic call [4]: active; positive
- mutagenic call (Species/Cell Type: Human diploid fibroblasts, Assay Type: Unscheduled DNA synthesis (UDS) in vitro, DNA effects, Assay Code: UDHT, Evaluation Type: Evaluation A (Pre-1980)): no conclusion
- mutagenic call [5]: active; positive
- mutagenic call (Species/Cell Type: Human lymphocytes, Assay Type: Sister-chromatid exchange (SCE) in vivo, Assay Code: SCY+, Evaluation Type: Evaluation B (Post-1980)): active; positive
- mutagenic call [6]: active; positive
- mutagenic call (Species/Cell Type: Mammalian polychromatic erythrocytes, Assay Type: Micronucleus test, chromosome aberrations, Assay Code: MNTT, Evaluation Type: Evaluation B (Post-1980)): no conclusion
- mutagenic call (Species/Cell Type: Neurospora crassa, Assay Type: Reverse gene mutation, Assay Code: NER+, Evaluation Type: Evaluation A (Pre-1980)): active; positive
- call [7]: active; positive
- mutagenic call [2]: active; positive
- mutagenic call [8]: active; positive
- mutagenic call [9]: active; positive

Structure (SMILES): Nc1ccccc1Cl
- mutagenic call [4]: active; positive
- mutagenic call [10]: inactive; negative
- mutagenic call [11]: inactive; negative
- mutagenic call (Species/Cell Type: Syrian hamster embryo (SHE) cells, Assay Type: Cell transformation, clonal assay, Assay Code: CTC-, Evaluation Type: Evaluation A (Pre-1980)): inactive; negative

Structure (SMILES): ClC(Cl)Cl
- mutagenic call (Species/Cell Type: Chinese hamster lung (V79) cells, Assay Type: Forward gene mutation at the HPRT or ouabain locus, Assay Code: V79-, Evaluation Type: Evaluation A (Pre-1980)): inactive; negative
- mutagenic call [5]: active; positive
- mutagenic call [6]: active; positive
- mutagenic call (Species/Cell Type: Mammalian polychromatic erythrocytes, Assay Type: Micronucleus test, chromosome aberrations, Assay Code: MNTT, Evaluation Type: Evaluation A (Pre-1980)): no conclusion
- mutagenic call (Species/Cell Type: Mouse, Sex: Male, Assay Type: Sperm morphology, Assay Code: SPIT, Evaluation Type: Evaluation A (Pre-1980)): no conclusion
- call [7]: active; positive
- mutagenic call [12]: no conclusion
- mutagenic call (Species/Cell Type: Nonhuman, Assay Type: Sister-chromatid exchange (SCE) in vivo, Assay Code: SC3+D, Dose Response: With dose response, Evaluation Type: Evaluation B (Post-1980)): active; positive
- mutagenic call [8]: active; positive
- mutagenic call (Species/Cell Type: Saccharomyces cerevisiae, Assay Type: Mitotic recombination or gene conversion, Assay Code: YEH+, Evaluation Type: Evaluation A (Pre-1980)): active; positive
- mutagenic call [9]: active; positive
- mutagenic call (Species/Cell Type: Syrian hamster embryo (SA7/SHE) cells, Assay Type: Cell transformation, viral enhanced, Assay Code: CT7-, Evaluation Type: Evaluation A (Pre-1980)): inactive; negative

Structure (SMILES): CN(CC(=O)OC[C@H](N)C(=O)O)N=O
- mutagenic call (Species/Cell Type: Escherichia coli polA (W3110 vs P3478), Assay Type: Rec-assay, DNA effects (bacterial DNA repair), Assay Code: RE2+, Evaluation Type: Evaluation A (Pre-1980)): active; positive
- mutagenic call [13]: no conclusion

Structure (SMILES): C[C@]12C=CC(=O)C=C1CC[C@@H]1[C@@H]2CC[C@@]2(C)[C@H]1CC[C@]2(C)O
- mutagenic call (Species/Cell Type: Human, Sex: Male, Assay Type: Sperm morphology, Assay Code: SPH+, Evaluation Type: Evaluation A (Pre-1980)): active; positive

Structure (SMILES): CCCCOc1ccc(CC(=O)NN)cc1CN(CC)CC
- mutagenic call (Species/Cell Type: Saccharomyces cerevisiae, Assay Type: Reverse gene mutation, Assay Code: YERT, Evaluation Type: Evaluation A (Pre-1980)): no conclusion

Structure (SMILES): ClC(Cl)=C(c1ccc(Cl)cc1)c1ccc(Cl)cc1
- mutagenic call [14]: active; positive
- mutagenic call [1]: no conclusion
- mutagenic call [13]: no conclusion
- mutagenic call (Species/Cell Type: Mouse lymphoma (L5178Y) cells, Assay Type: Forward gene mutation at the thymidine kinase (TK) locus, chromosome aberrations, Assay Code: L51+/-*, Activation: With metabolic activation, Evaluation Type: Evaluation A (Pre-1980)): inactive; positive without activation, negative with activation
- mutagenic call (Species/Cell Type: Nonhuman, Assay Type: Chromosome aberrations in vitro, Assay Code: CY&+, Evaluation Type: Evaluation A (Pre-1980)): active; positive
- call (Species/Cell Type: Nonhuman, Assay Code: CCG+L, Evaluation Type: Evaluation A (Pre-1980)): active; positive
- mutagenic call [11]: inactive; negative
- mutagenic call (Species/Cell Type: Salmonella typhimurium (one or more of the five standard strains: TA98, TA100, TA1535, TA1537, and TA1538), Assay Type: Histidine reverse gene mutation, Ames assay, Assay Code: SAL-, Evaluation Type: Evaluation A (Pre-1980)): inactive; negative
- mutagenic call (Species/Cell Type: Salmonella typhimurium, Serratia marcesens, Assay Type: Forward and reverse gene mutation, host-mediated assay, Assay Code: HM2-, Evaluation Type: Evaluation A (Pre-1980)): inactive; negative

Structure (SMILES): CCOP(=O)(OCC)Oc1cc(C)nc(C(C)C)n1
- mutagenic call [2]: active; positive

Structure (SMILES): N#CCCN
- mutagenic call [1]: no conclusion
- mutagenic call (Species/Cell Type: Nonhuman, Assay Type: Sister-chromatid exchange (SCE) in vivo, Assay Code: SC3+, Evaluation Type: Evaluation B (Post-1980)): active; positive

Structure (SMILES): [N-]=[N+]=O
- mutagenic call [14]: active; positive
- mutagenic call [10]: inactive; negative
- call (Species/Cell Type: Nonhuman, Assay Code: CCGT, Evaluation Type: Evaluation A (Pre-1980)): no conclusion
- mutagenic call [12]: no conclusion
- mutagenic call (Species/Cell Type: Tradescantia species, Assay Type: Gene mutation, Assay Code: TRM+D, Dose Response: With dose response, Evaluation Type: Evaluation A (Pre-1980)): active; positive

Structure (SMILES): c1ccc2c(c1)Cc1c(c3ccccc3c3ccccc13)C2
- mutagenic call (Species/Cell Type: Salmonella typhimurium (one or more of the five standard strains: TA98, TA100, TA1535, TA1537, and TA1538), Assay Type: Histidine reverse gene mutation, Ames assay, Assay Code: SAL+*, Activation: With metabolic activation, Evaluation Type: Evaluation A (Pre-1980)): active; positive

Structure (SMILES): Cc1cc(O)c2c(c1O)C(=O)c1c(O)ccc(O)c1C2=O
- mutagenic call (Species/Cell Type: Salmonella typhimurium (one or more of the five standard strains: TA98, TA100, TA1535, TA1537, and TA1538), Assay Type: Histidine reverse gene mutation, Ames assay, Assay Code: SAL+, Evaluation Type: Evaluation A (Pre-1980)): active; positive

Structure (SMILES): C/C(=C(\CCOC(=O)c1ccccc1)SC(=O)c1ccccc1)N(C=O)Cc1cnc(C)nc1N
- mutagenic call (Species/Cell Type: Bacillus subtilis (H17 vs M45), Assay Type: Rec-assay, spot test, DNA effects (bacterial DNA repair), Assay Code: REW-, Evaluation Type: Evaluation A (Pre-1980)): inactive; negative
- mutagenic call (Species/Cell Type: Escherichia coli WP2, Assay Type: Tryptophan reverse gene mutation, Assay Code: WP2-*, Activation: With metabolic activation, Evaluation Type: Evaluation A (Pre-1980)): inactive; negative
- mutagenic call (Species/Cell Type: Escherichia coli WP2 UVRA, Assay Type: Tryptophan reverse gene mutation, Assay Code: WPU-*, Activation: With metabolic activation, Evaluation Type: Evaluation A (Pre-1980)): inactive; negative

Structure (SMILES): CN(C)N=Nc1ccc(Cl)cc1
- mutagenic call [3]: active; positive
- mutagenic call (Species/Cell Type: Mammalian polychromatic erythrocytes, Assay Type: Micronucleus test, chromosome aberrations, Assay Code: MNT+, Evaluation Type: Evaluation A (Pre-1980)): active; positive
- mutagenic call [8]: active; positive
